Assay results: US11912686B2 (Gilead Sciences, Inc., priority 2020, dated 2024)

These molecules were tested against human LPAR1 (Homo sapiens (Human), UniProt Q92633) (assay: LPAR1 intracellular calcium mobilization assay (antagonist mode, FLIPR)). Details: CHO-K1 EDG2 cells expressing human LPAR1, LPA 18:2 at EC80 (100 nM), test compound 0.5 nM to 10 μM.
Format: cell-based

Sequence of human LPAR1 (Q92633 whole entry): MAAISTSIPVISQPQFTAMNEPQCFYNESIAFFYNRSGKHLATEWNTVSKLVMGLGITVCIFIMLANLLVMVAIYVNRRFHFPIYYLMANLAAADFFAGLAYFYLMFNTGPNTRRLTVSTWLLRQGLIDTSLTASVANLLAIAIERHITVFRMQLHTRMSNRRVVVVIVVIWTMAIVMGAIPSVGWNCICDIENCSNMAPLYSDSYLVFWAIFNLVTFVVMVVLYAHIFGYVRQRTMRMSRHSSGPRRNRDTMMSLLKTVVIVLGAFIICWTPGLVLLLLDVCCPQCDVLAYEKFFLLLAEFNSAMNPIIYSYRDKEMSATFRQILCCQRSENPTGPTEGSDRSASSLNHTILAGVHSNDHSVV

Q: With C[C@@H](OC(=O)Nc1c(-c2ccc(NC(=O)C34CC(S(C)(=O)=O)(C3)C4)cn2)nnn1C)c1cc(F)cnc1F [Compound 215, (R)-1-(2,5-difluoropyridin-3-yl)ethyl (1-methyl-4-(5-(3-(methylsulfonyl)bicyclo[1.1.1]pentane-1-carboxamido)pyridin-2-yl)-1H-1,2,3-triazol-5-yl)carbamate] as the molecule, how does the EC50 read?
A: 2000 nM

Q: How did the EC50 turn out when C[C@@H](OC(=O)Nc1c(-c2ccc(NC(=O)[C@@H]3C[C@H]3Cl)cn2)nnn1C)c1cc(F)cnc1F [Compound 218, (R)-1-(2,5-difluoropyridin-3-yl)ethyl (4 (5-((1S,2R)-2-chlorocyclopropane-1-carboxamido)pyridin-2-yl)-1-methyl-1H-1,2,3-triazol-5-yl)carbamate] was run?
A: 24 nM

Q: How did the EC50 turn out when C[C@@H](OC(=O)Nc1c(-c2ccc(NC(=O)c3cncc(C(F)F)c3)cn2)nnn1C)c1cc(F)cnc1F [Compound 219, (R)-1-(2,5-difluoropyridin-3-yl)ethyl (4-(5-(5-(difluoromethyl)nicotinamido)pyridin-2-yl)-1-methyl-1H-1,2,3-triazol-5-yl)carbamate] was run?
A: 37.7 nM

Q: C[C@@H](OC(=O)Nc1c(-c2ccc(NC(=O)c3ccc(F)nc3)cn2)nnn1C)c1cc(F)cnc1F [Compound 220, (R)-1-(2,5-difluoropyridin-3-yl)ethyl (4-(5-(6-fluoronicotinamido)pyridin-2-yl)-1-methyl-1H-1,2,3-triazol-5-yl)carbamate] was tested. Which EC50 did it give?
A: 158 nM

Q: With Cc1ccc(C(=O)Nc2ccc(-c3nnn(C)c3NC(=O)O[C@H](C)c3cc(F)cnc3F)nc2)cn1 [Compound 221, (R)-1-(2,5-difluoropyridin-3-yl)ethyl (1-methyl-4-(5-(6-methylnicotinamido)pyridin-2-yl)-1H-1,2,3-triazol-5-yl)carbamate] as the molecule, how does the EC50 read?
A: 374 nM

Q: C[C@@H](OC(=O)Nc1c(-c2ccc(NC(=O)c3ccc(C(F)F)nc3)cn2)nnn1C)c1cc(F)cnc1F [Compound 222, (R)-1-(2,5-difluoropyridin-3-yl)ethyl (4-(5-(6-(difluoromethyl)nicotinamido)pyridin-2-yl)-1-methyl-1H-1,2,3-triazol-5-yl)carbamate] was tested. Which EC50 did it give?
A: 41.7 nM

Q: COc1cc(C(=O)Nc2ccc(-c3nnn(C)c3NC(=O)O[C@H](C)c3cc(F)cnc3F)nc2)ccn1 [Compound 223, (R)-1-(2,5-difluoropyridin-3-yl)ethyl (4-(5-(2-methoxyisonicotinamido)pyridin-2-yl)-1-methyl-1H-1,2,3-triazol-5-yl)carbamate] was tested. Which EC50 did it give?
A: 118 nM

Q: C[C@@H](OC(=O)Nc1c(-c2ccc(NC(=O)c3ccnc(C(F)F)c3)cn2)nnn1C)c1cc(F)cnc1F [Compound 224, (R)-1-(2,5-difluoropyridin-3-yl)ethyl (4-(5-(2-(difluoromethyl)isonicotinamido)pyridin-2-yl)-1-methyl-1H-1,2,3-triazol-5-yl)carbamate] was tested. Which EC50 did it give?
A: 40.2 nM

Q: C[C@@H](OC(=O)Nc1c(-c2ccc(NC(=O)C3(C)CC(F)(F)C3)cn2)nnn1C)c1cc(F)cnc1F [Compound 226, (R)-1-(2,5-difluoropyridin-3-yl)ethyl (4-(5-(3,3-difluoro-1-methylcyclobutane-1-carboxamido)pyridin-2-yl)-1-methyl-1H-1,2,3-triazol-5-yl)carbamate] was tested. Which EC50 did it give?
A: 184 nM

Q: With Cc1cnoc1C(=O)Nc1ccc(-c2nnn(C)c2NC(=O)O[C@H](C)c2cc(F)cnc2F)nc1 [Compound 227, (R)-1-(2,5-difluoropyridin-3-yl)ethyl (1-methyl-4-(5-(4-methylisoxazole-5-carboxamido)pyridin-2-yl)-1H-1,2,3-triazol-5-yl)carbamate] as the molecule, how does the EC50 read?
A: 206 nM

Q: How did the EC50 turn out when C[C@@H](OC(=O)Nc1c(-c2ccc(NC(=O)C3(C)CS(=O)(=O)C3)cn2)nnn1C)c1cc(F)cnc1F [Compound 228, (R)-1-(2,5-difluoropyridin-3-yl)ethyl (1-methyl-4-(5-(3-methyl-1,1-dioxidothietane-3-carboxamido)pyridin-2-yl)-1H-1,2,3-triazol-5-yl)carbamate] was run?
A: 403 nM

Q: For Cc1cc(C(=O)Nc2ccc(-c3nnn(C)c3NC(=O)O[C@H](C)c3cc(F)cnc3F)nc2)cnn1 [Compound 231, (R)-1-(2,5-difluoropyridin-3-yl)ethyl (1-methyl-4-(5-(6-methylpyridazine-4-carboxamido)pyridin-2-yl)-1H-1,2,3-triazol-5-yl)carbamate], which EC50 is on record?
A: 412 nM

Q: Which EC50 does the source give for C[C@@H](OC(=O)Nc1c(-c2ccc(NC(=O)c3ccnc(N)c3)cn2)nnn1C)c1cc(F)cnc1F [Compound 232, (R)-1-(2,5-difluoropyridin-3-yl)ethyl (4-(5-(2-aminoisonicotinamido)pyridin-2-yl)-1-methyl-1H-1,2,3-triazol-5-yl)carbamate] here?
A: 1110 nM

Q: Which EC50 does the source give for Cc1ncc(C(=O)Nc2ccc(-c3nnn(C)c3NC(=O)O[C@H](C)c3cc(F)cnc3F)nc2)cn1 [Compound 234, (R)-1-(2,5-difluoropyridin-3-yl)ethyl (1-methyl-4-(5-(2-methylpyrimidine-5-carboxamido)pyridin-2-yl)-1H-1,2,3-triazol-5-yl)carbamate] here?
A: 136 nM

Q: With C[C@@H](OC(=O)Nc1c(-c2ccc(NC(=O)c3cnc(C#N)nc3)cn2)nnn1C)c1cc(F)cnc1F [Compound 235, (R)-1-(2,5-difluoropyridin-3-yl)ethyl (4-(5-(2-cyanopyrimidine-5-carboxamido)pyridin-2-yl)-1-methyl-1H-1,2,3-triazol-5-yl)carbamate] as the molecule, how does the EC50 read?
A: 26.5 nM

Q: How did the EC50 turn out when C[C@@H](OC(=O)Nc1c(-c2ccc(NC(=O)c3ccc(=O)n(C)c3)cn2)nnn1C)c1cc(F)cnc1F [Compound 236, (R)-1-(2,5-difluoropyridin-3-yl)ethyl (1-methyl-4-(5-(1-methyl-6-oxo-1,6-dihydropyridine-3-carboxamido)pyridin-2-yl)-1H-1,2,3-triazol-5-yl)carbamate] was run?
A: 1660 nM

Q: With Cc1nonc1C(=O)Nc1ccc(-c2nnn(C)c2NC(=O)O[C@H](C)c2cc(F)cnc2F)nc1 [Compound 239, (R)-1-(2,5-difluoropyridin-3-yl)ethyl (1-methyl-4-(5-(4-methyl-1,2,5-oxadiazole-3-carboxamido)pyridin-2-yl)-1H-1,2,3-triazol-5-yl)carbamate] as the molecule, how does the EC50 read?
A: 62.3 nM

Q: Which EC50 does the source give for C[C@@H](OC(=O)Nc1c(-c2ccc(NC(=O)c3cc(F)cnc3F)cn2)nnn1C)c1cc(F)cnc1F [Compound 241, (R)-1-(2,5-difluoropyridin-3-yl)ethyl (4-(5-(2,5-difluoronicotinamido)pyridin-2-yl)-1-methyl-1H-1,2,3-triazol-5-yl)carbamate] here?
A: 111 nM

Q: For C[C@@H](OC(=O)Nc1c(-c2ccc(NC(=O)c3ccc(C(F)(F)F)nc3)cn2)nnn1C)c1cc(F)cnc1F [Compound 242, (R)-1-(2,5-difluoropyridin-3-yl)ethyl (1-methyl-4-(5-(6-(trifluoromethyl)nicotinamido)pyridin-2-yl)-1H-1,2,3-triazol-5-yl)carbamate], which EC50 is on record?
A: 63.3 nM

Q: How did the EC50 turn out when C[C@@H](OC(=O)Nc1c(-c2ccc(NC(=O)c3ccnc(F)c3F)cn2)nnn1C)c1cc(F)cnc1F [Compound 243, (R)-1-(2,5-difluoropyridin-3-yl)ethyl (4-(5-(2,3-difluoroisonicotinamido)pyridin-2-yl)-1-methyl-1H-1,2,3-triazol-5-yl)carbamate] was run?
A: 71.9 nM

Q: With C[C@@H](OC(=O)Nc1c(-c2ccc(NC(=O)c3cc(F)nc(F)c3)cn2)nnn1C)c1cc(F)cnc1F [Compound 244, (R)-1-(2,5-difluoropyridin-3-yl)ethyl (4-(5-(2,6-difluoroisonicotinamido)pyridin-2-yl)-1-methyl-1H-1,2,3-triazol-5-yl)carbamate] as the molecule, how does the EC50 read?
A: 131 nM

Q: How did the EC50 turn out when C[C@@H](OC(=O)Nc1c(-c2ccc(NC(=O)[C@]3(C#N)C[C@H]3C(F)F)cn2)nnn1C)c1cc(F)cnc1F [Compound 245, (R)-1-(2,5-difluoropyridin-3-yl)ethyl (4-(5-((1R,2R)-1-cyano-2-(difluoromethyl)cyclopropane-1-carboxamido)pyridin-2-yl)-1-methyl-1H-1,2,3-triazol-5-yl)carbamate] was run?
A: 11.7 nM

Q: With C[C@@H](OC(=O)Nc1c(-c2ccc(NC(=O)[C@@]3(C#N)C[C@@H]3C(F)F)cn2)nnn1C)c1cc(F)cnc1F [Compound 246, (R)-1-(2,5-difluoropyridin-3-yl)ethyl (4-(5-((1S,2S)-1-cyano-2-(difluoromethyl)cyclopropane-1-carboxamido)pyridin-2-yl)-1-methyl-1H-1,2,3-triazol-5-yl)carbamate] as the molecule, how does the EC50 read?
A: 103 nM

Q: For Cc1nccc(C(=O)Nc2ccc(-c3nnn(C)c3NC(=O)O[C@H](C)c3cc(F)cnc3F)nc2)n1 [Compound 249, (R)-1-(2,5-difluoropyridin-3-yl)ethyl (1-methyl-4-(5-(2-methylpyrimidine-4-carboxamido)pyridin-2-yl)-1H-1,2,3-triazol-5-yl)carbamate], which EC50 is on record?
A: 537 nM

Q: With C[C@@H](OC(=O)Nc1c(-c2ccc(NC(=O)c3ccc(Cl)nn3)cn2)nnn1C)c1cc(F)cnc1F [Compound 250, (R)-1-(2,5-difluoropyridin-3-yl)ethyl (4-(5-(6-chloropyridazine-3-carboxamido)pyridin-2-yl)-1-methyl-1H-1,2,3-triazol-5-yl)carbamate] as the molecule, how does the EC50 read?
A: 276 nM

Q: For C[C@@H](OC(=O)Nc1c(-c2ccc(NC(=O)c3cnc(C(F)(F)F)nc3)cn2)nnn1C)c1cc(F)cnc1F [Compound 251, (R)-1-(2,5-difluoropyridin-3-yl)ethyl (1-methyl-4-(5-(2-(trifluoromethyl)pyrimidine-5-carboxamido)pyridin-2-yl)-1H-1,2,3-triazol-5-yl)carbamate], which EC50 is on record?
A: 38.5 nM

Q: Which EC50 does the source give for C[C@@H](OC(=O)Nc1c(-c2ccc(NC(=O)c3cnc(C(F)F)nc3)cn2)nnn1C)c1cc(F)cnc1F [Compound 252, (R)-1-(2,5-difluoropyridin-3-yl)ethyl (4-(5-(2-(difluoromethyl)pyrimidine-5-carboxamido)pyridin-2-yl)-1-methyl-1H-1,2,3-triazol-5-yl)carbamate] here?
A: 73.5 nM

Q: C[C@@H](OC(=O)Nc1c(-c2ccc(NC(=O)c3cnccc3Cl)cn2)nnn1C)c1cc(F)cnc1F [Compound 253, (R)-1-(2,5-difluoropyridin-3-yl)ethyl (4-(5-(4-chloronicotinamido)pyridin-2-yl)-1-methyl-1H-1,2,3-triazol-5-yl)carbamate] was tested. Which EC50 did it give?
A: 551 nM
